Experiments:
rat cannabinoid receptor = experiment: Inhibition of forskolin-mediated induction of β-galactosidase in cannabinoid receptor transfected LVIP2.OZc cells; format: cell-based; conditions: 1 μM CP55940, 0.5 μM forskolin, IBMX, 6 hours
Method: Cells were exposed for 6 hours to medium containing 0.5 mM IBMX, 0.5 mM BSA and 0.5 μM forskolin ±1 μM CP55940.
One hundred microliters of medium containing IBMX/ascorbic acid or forskolin (1 μM)/IBMX/ascorbic acid were added to control wells. […] Each set of conditions was carried out in quadruplicate. After an eight hour exposure to ligand the cells were washed with 200 μl phosphate buffered saline and β-galactosidase activity was assayed.
β-Galactosidase microassay. β-galactosidase activity was measured with a microplate reader (Molecular Devices, Palo Alto).
All the steps in the microassay were carried out at room temperature. The assay buffer is composed of 100 mM sodium phosphate, 2 mM MgSO4, 0.1 mM MnCl2, pH 8.0. The adherent cells were washed with PBS, the plate drained and 25 μl/well of hypotonic lysis buffer added to each well, (dilute 1 part buffer with 9 parts water). […] After an additional 10 minutes, 24 μl of ONPG (4 mg/ml in assay buffer; prepared daily) was added, and the optical density per well at 405 nm was determined with a plate reader. Readings were taken through 1.5 OD at 405 nm, within the linear portion of the color development. The initial rates, expressed as mOD/minute, are linearly related to β-galactosidase enzyme concentration over an enzyme concentration range of 0.1 to 100 mU (one unit hydrolyzes one micromole of ONPG per minute at 25 degrees, pH 7.5).

[1] = system: endogenous receptors for adenosine in LVIP2.OZc cells; experiment: β-galactosidase (ONPG) induction in untransfected LVIP2.OZc cells by NECA (endogenous adenosine receptors); format: cell-based, mouse
Method: (§1) FIG. 1. Detection of β-galactosidase of color development of o-nitrophenol. LVIP2.OZc cells were exposed for 8 hours to control medium (containing 0.5 mM IBMX) (.quadrature.), or control medium containing 0.5 μM forskolin (.cndot.), or control medium containing 1 μM (.box-solid.) or 10 NECA (.tangle-solidup.). After cell lysis and addition of the substrate ONPG, enzyme activity was measured as optical density at 405 nm at various time intervals. Data are mean±S.D. taken from one experiment that is representative of several.
(§2) FIG. 2. Induction of β-galactosidase as a response to length of ligand exposure. LVIP2.OZc cells were incubated for 1, 2, 4, 6, 8, 12, 15 and 18 hours in control medium (containing 0.5 mM IBMX) (.quadrature.), or control medium containing 0.5 μM forskolin (.cndot.), or control medium containing 1 μM NECA (.box-solid.), or control medium containing 1 μM PGE2 (.tangle-solidup.). Data are mean±S.D. from one representative experiment.
(§3) FIG. 3. Induction of β-galactosidase as a response to different doses of ligands. LVIP2.OZc cells were treated for 8 hours with control medium (containing 0.5 mM IBMX), and 0.1 or 0.2 or 0.5 or 1 μM forskolin (.cndot.), control medium and 0.1 or 0.5 or 1 or 10 μM NECA (.box-solid.), control medium containing 0.1 or 0.5 or 1 or 10 μM PGE2 (.tangle-solidup.). Data are mean±S.D. from a representative experiment.
(§4) Care should be taken to avoid foaming.
Therefore, a quantitative assay was developed for the cAMP-mediated increase in β-galactosidase activity. This assay was performed in 96 well plates after solubilization of the cells and incubation with the substrate ONPG. Thus, the change in optical density over a defined period of time was directly proportional to the level of β-galactosidase activity. The optical density increased linearly with time up to 1.5. The LVIP2.OZc cells were determined to contain endogenous […] -coupled receptors for PGE (prostaglandin E2) and adenosine. In pilot studies, untransfected cells were treated for 8 hours with IBMX in the presence or absence of NECA [5'-(N-ETHYLCARBOXAMIDO)-ADENOSINE, adenosine A2 receptor agonist], or forskolin, to increase intracellular cAMP levels (FIG. 1). […] The enzyme levels generated by 1 μM NECA, 10 μM NECA, and 0.5 μM forskolin were determined to be 8, 30, and 48 -fold higher, respectively, than in the IBMX control cells. The differences were discernible by visual examination after 3 to 6 hours.
In pilot studies, cells were exposed to IBMX in the presence or absence for forskolin (0.5 μM), NECA (1 μM), or prostaglandin E2 (1 μM) for 2, 4, 6, 8, 15, or 18 hours and their β-galactosidase activities measured. […] Dose-response data (FIG. 3) were obtained by treating cells with forskolin, NECA, or PGE2 for 8 hours. […]

[2] = system: endogenous receptors for PGE (prostaglandin E2) in LVIP2.OZc cells; experiment: β-galactosidase (ONPG) induction in untransfected LVIP2.OZc cells by PGE2 (endogenous PGE receptors); format: cell-based, mouse; conditions: 8 hours, IBMX
Method: as §2
as §3, with “Data are mean±S.D. from a representative experiment.” left out
(§5) Therefore, a quantitative assay was developed for the cAMP-mediated increase in β-galactosidase activity. […] The LVIP2.OZc cells were determined to contain endogenous […] -coupled receptors for PGE (prostaglandin E2) and adenosine. […] The enzyme levels generated by 1 μM NECA, 10 μM NECA, and 0.5 μM forskolin were determined to be 8, 30, and 48 -fold higher, respectively, than in the IBMX control cells. […]
(§6) In pilot studies, cells were exposed to IBMX in the presence or absence for forskolin (0.5 μM), NECA (1 μM), or prostaglandin E2 (1 μM) for 2, 4, 6, 8, 15, or 18 hours and their β-galactosidase activities measured. […]

dopamine D2L receptor = conditions: 10 μM agonist, 0.5 μM forskolin, IBMX, 6 hours
From the text: Data are mean±S.D. from one representative experiment. […] Data are mean±S.D. from one representative experiment. […] Data are mean±S.D. from one representative experiment.
Transfection of cells. Cells were transfected by the calcium phosphate transfection protocol of Chen and Okayama. For each plasmid DNA preparation, the amount of DNA required for formation of an optimum calcium phosphate-DNA precipitate varies; thus, a dose response study is desirable. […]
β-Galactosidase microassay. β-galactosidase activity was measured with a microplate reader (Molecular Devices, Palo Alto). […]
All the steps in the microassay were carried out at room temperature. […] After an additional 10 minutes, 24 μl of ONPG (4 mg/ml in assay buffer; prepared daily) was added, and the optical density per well at 405 nm was determined with a plate reader. Readings were taken through 1.5 OD at 405 nm, within the linear portion of the color development. The initial rates, expressed as mOD/minute, are linearly related to β-galactosidase enzyme concentration over an enzyme concentration range of 0.1 to 100 mU (one unit hydrolyzes one micromole of ONPG per minute at 25 degrees, pH 7.5). […]

LVIP2.OZc cells [3] = experiment: X-gal staining of LVIP2.OZc cells (blue positive cells) after forskolin + IBMX; format: cell-based, mouse; conditions: forskolin 5 μM + IBMX 0.5 mM, 6 to 18 hours
Method: Hygromycin-resistant Ltk^- clones were screened for induction of β-galactosidase after addition of forskolin (10 μM) and IBMX (0.5 μM).
In preliminary experiments, forskolin (5 μM) and IBMX (0.5 mM) was used to increase cyclic AMP levels. […] Next, the cells were transfected with human β2 -adrenergic receptor cDNA in the pcD expression vector. […] Ascorbic acid was added to prevent oxidation of isoproterenol.

LVIP2.OZc cells [4] = experiment: β-galactosidase (ONPG) induction in untransfected LVIP2.OZc cells by forskolin; format: cell-based, mouse; conditions: 8 hours
Method: as §1, §2, §3, §4, §5, §6

## CCCCCCC(C)(C)c1ccc([C@@H]2C[C@H](O)CC[C@H]2CCCO)c(O)c1 [CP55940]
Rat cannabinoid receptor
  decrease of forskolin stimulated activity: 15%

## CCNC(=O)[C@H]1O[C@@H](n2cnc3c(N)ncnc32)[C@H](O)[C@@H]1O [NECA, 5'-(N-ETHYLCARBOXAMIDO)-ADENOSINE]
[1]; 1 μM NECA, 8 hours, IBMX
  enzyme level relative to IBMX control cells: 8 -fold
[1]; 8 hours, IBMX
  concentration required to achieve maximum enzyme induction: 10 µM
  β-galactosidase activity versus IBMX-treated control cells (in words): considerably higher levels
[1]; lvip2.ozc cells, 8 h, 10 µM
  enzyme level relative to IBMX control cells: 30 -fold

## CCCCC[C@H](O)/C=C/[C@H]1[C@H](O)CC(=O)[C@@H]1C/C=C\CCCC(=O)O [PGE2, prostaglandin E2]
[2]
  concentration required to achieve maximum enzyme induction: 10 µM

## NCCc1ccc(O)c(O)c1 [dopamine]
Dopamine D2L receptor
  inhibition of forskolin-stimulated increase of β-galactosidase activity: Significant inhibition

## C=C[C@@]1(C)CC(=O)[C@]2(O)[C@@]3(C)[C@@H](O)CCC(C)(C)[C@@H]3[C@H](O)[C@H](OC(C)=O)[C@@]2(C)O1 [forskolin]
LVIP2.OZc cells [3]
  cells that developed a blue color: More than 90%
LVIP2.OZc cells [4]
  β-galactosidase activity versus IBMX-treated control cells (in words): considerably higher levels
LVIP2.OZc cells [4]; IBMX
  concentration producing maximum effect: 0.5 µM
LVIP2.OZc cells [4]; Mus musculus, 0.5 μM forskolin, IBMX, read-out: enzyme level relative to IBMX control cells
  fold induction at 0.5 µM: 48

Source: patent US5783402A, “Method of identifying ligands and anatgonists of G-protein coupled receptor” (The United States of America as represented by the …, priority 1996, dated 1998)
